Where two headings read alike, the source gives them in different places.
Columns and labels:
[1] = target: T1, rat CB2 receptor (rCB2) (Rattus norvegicus, UniProt Q9QZN9); test: cell-based; type: cell-based; conditions: for +/− RCB2: agonist or inverse agonist at rCB2
T1 sequence (Q9QZN9 1-360): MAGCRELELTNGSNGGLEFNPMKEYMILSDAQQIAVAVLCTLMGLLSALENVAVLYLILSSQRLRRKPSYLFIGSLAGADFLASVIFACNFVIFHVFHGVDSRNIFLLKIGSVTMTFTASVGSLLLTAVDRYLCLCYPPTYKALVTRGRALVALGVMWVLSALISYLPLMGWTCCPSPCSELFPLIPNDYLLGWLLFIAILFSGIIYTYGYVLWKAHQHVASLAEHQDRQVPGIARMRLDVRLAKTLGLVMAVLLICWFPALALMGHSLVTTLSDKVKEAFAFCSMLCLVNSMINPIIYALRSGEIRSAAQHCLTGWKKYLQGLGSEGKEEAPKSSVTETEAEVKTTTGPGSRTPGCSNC
How it was run: (§1)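 Readout: LANCE TR-FRET cAMP, back-calculated from a concurrent standard curve and scaled between forskolin-only and forskolin + 1 μM CP55,940 wells. EC50 and intrinsic activity came from four-parameter fits.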

[2] = target: human CB1 receptor (hCB1) (Homo sapiens, UniProt P21554); test: cell-based; type: cell-based; conditions: for +/− HCB1: agonist or inverse agonist at hCB1
Sequence of human CB1 receptor (hCB1) (P21554 whole entry): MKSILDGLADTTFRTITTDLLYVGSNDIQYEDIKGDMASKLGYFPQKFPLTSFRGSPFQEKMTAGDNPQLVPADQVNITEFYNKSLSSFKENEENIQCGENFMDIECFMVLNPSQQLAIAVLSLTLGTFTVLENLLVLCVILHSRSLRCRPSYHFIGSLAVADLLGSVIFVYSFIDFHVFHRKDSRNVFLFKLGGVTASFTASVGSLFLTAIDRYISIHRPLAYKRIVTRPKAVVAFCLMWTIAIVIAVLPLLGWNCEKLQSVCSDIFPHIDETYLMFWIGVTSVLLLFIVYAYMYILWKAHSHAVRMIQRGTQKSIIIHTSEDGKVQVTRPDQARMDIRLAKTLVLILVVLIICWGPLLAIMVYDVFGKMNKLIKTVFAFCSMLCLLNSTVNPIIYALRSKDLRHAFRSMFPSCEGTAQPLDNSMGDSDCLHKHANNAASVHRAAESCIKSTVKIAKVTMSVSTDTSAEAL
How it was run: as §1

[3] = groups >100 nM-10 μM and >10 μM, cAMP, CHO-K1 hCB1, read-out: EC50 HCB1

Structure (SMILES)	+/− RCB2 [1]	EC50 [2, 3] [nM]	+/− HCB1 [2]	EC50 [2] [nM]	EC50 [1] [µM]
O=C(NC1CCCCC1)c1nc(-c2ccccc2)n2c1CN(C(=O)c1ccoc1)CC2 [Compound 138, N-cyclohexyl-7-(furan-3-carbonyl)-3-phenyl-5,6,7,8-tetrahydroimidazo[1,5-a]pyrazine-1-carboxamide]	−	> 10000			
CNC(=O)[C@@H](NC(=O)c1nc(C2CCCCCC2)n2c1CN(C)CCC2)C(C)(C)C [Compound 498, (S)-3-cycloheptyl-N-(3,3-dimethyl-1-(methylamino)-1-oxobutan-2-yl)-8-methyl-6,7,8,9-tetrahydro-5H-imidazo[1,5-a][1,4]diazepine-1-carboxamide]	+		+		
C[C@@H](NC(=O)c1nc(-c2ccccc2)n2c1CN(C(=O)C(C)(C)C)CC2)C1CCCCC1 [Compound 133, (R)-N-(1-cyclohexylethyl)-3-phenyl-7-pivaloyl-5,6,7,8-tetrahydroimidazo[1,5-a]pyrazine-1-carboxamide]	−			> 10000	
CNC(=O)[C@@H](NC(=O)c1nc(CCC2CCCCC2)n2c1CN(C)CCC2)C(C)(C)C [Compound 493, (S)-3-(2-cyclohexylethyl)-N-(3,3-dimethyl-1-(methylamino)-1-oxobutan-2-yl)-8-methyl-6,7,8,9-tetrahydro-5H-imidazo[1,5-a][1,4]diazepine-1-carboxamide]	−			> 10000	
CNC(=O)[C@H](CC(C)(C)C)NC(=O)c1nc(-c2cccc(F)c2)n2c1CN(C)CCC2 [Compound 548, (S)-N-(4,4-dimethyl-1-(methylamino)-1-oxopentan-2-yl)-3-(3-fluorophenyl)-8-methyl-6,7,8,9-tetrahydro-5H-imidazo[1,5-a][1,4]diazepine-1-carboxamide]	+		+		
CC(C)(C)OC(=O)N1CCn2c(-c3ccccc3)nc(C(=O)NN3CCCCC3)c2C1 [Compound 35, tert-butyl 3-phenyl-1-(piperidin-1-ylcarbamoyl)-5,6-dihydroimidazo[1,5-a]pyrazine-7(8H)-carboxylate]	−	> 10000			
Cc1nnc([C@@H](NC(=O)c2nc(-c3ccccc3)n3c2CN(C)CC3)C(C)(C)C)o1 [Compound 201, (S)-N-(2,2-dimethyl-1-(5-methyl-1,3,4-oxadiazol-2-yl)propyl)-7-methyl-3-phenyl-5,6,7,8-tetrahydroimidazo[1,5-a]pyrazine-1-carboxamide]	+			> 10000	
CNC(=O)c1ccc(-c2nc(C(=O)N[C@H](C(=O)NC)C(C)(C)C)c3n2CCCN(C)C3)cc1 [Compound 408]				> 10000	> 10
O=C(NC1CCCCC1)c1nc(-c2ccccc2)n2c1CN(CC1CCOC1)CC2 (centres unmarked) [Compound 141, N-cyclohexyl-3-phenyl-7-((tetrahydrofuran-3-yl)methyl)-5,6,7,8-tetrahydroimidazo[1,5-a]pyrazine-1-carboxamide]	−			> 10000	
CCCNC(=O)[C@@H](NC(=O)c1nc(-c2ccccc2)n2c1CN(C)CCC2)C(C)(C)C [Compound 473, (S)-N-(3,3-dimethyl-1-oxo-1-(propylamino)butan-2-yl)-8-methyl-3-phenyl-6,7,8,9-tetrahydro-5H-imidazo[1,5-a][1,4]diazepine-1-carboxamide]	+			> 10000	
CNC(=O)[C@@H](NC(=O)c1nc(-c2ccc(C)c(F)c2)n2c1CN(C)CCC2)C(C)(C)C [Compound 360, (S)-N-(3,3-dimethyl-1-(methylamino)-1-oxobutan-2-yl)-3-(3-fluoro-4-methylphenyl)-8-methyl-6,7,8,9-tetrahydro-5H-imidazo[1,5-a][1,4]diazepine-1-carboxamide]				> 10000	> 10
CCN1CCn2c(-c3ccccc3)nc(C(=O)NC3C4(C)CCC(C4)C3(C)C)c2C1 (centres unmarked) [Compound 144, 7-ethyl-3-phenyl-N-(1,3,3-trimethylbicyclo[2.2.1]heptan-2-yl)-5,6,7,8-tetrahydroimidazo[1,5-a]pyrazine-1-carboxamide]	−			> 10000	
CNC(=O)[C@@H](NC(=O)c1nc(C2=CCCCC2)n2c1CN(C)CC2)C(C)(C)C [Compound 256]	+			> 10000	
CC12CCC(C1)C(C)(C)C2NC(=O)c1nc(-c2ccccc2)n2c1CN(CCO)CC2 (centres unmarked) [Compound 143, 7-(2-hydroxyethyl)-3-phenyl-N-(1,3,3-trimethylbicyclo[2.2.1]heptan-2-yl)-5,6,7,8-tetrahydroimidazo[1,5-a]pyrazine-1-carboxamide]	−			> 10000	
CCC(=O)N1CCn2c(-c3ccccc3)nc(C(=O)N[C@H](C(=O)NC)C(C)(C)C)c2C1 [Compound 189, (S)-N-(3,3-dimethyl-1-(methylamino)-1-oxobutan-2-yl)-3-phenyl-7-propionyl-5,6,7,8-tetrahydroimidazo[1,5-a]pyrazine-1-carboxamide]	+			> 10000	
CNC(=O)[C@H](CC(C)C)NC(=O)c1nc(-c2ccc(F)c(F)c2)n2c1CN(C)CC2 [Compound 278, (S)-3-(3,4-difluorophenyl)-7-methyl-N-(4-methyl-1-(methylamino)-1-oxopentan-2-yl)-5,6,7,8-tetrahydroimidazo[1,5-a]pyrazine-1-carboxamide]	+			> 10000	
CN1CCn2c(-c3ccc(Cl)cc3F)nc(C(=O)NCc3ccc4[nH]c(=O)[nH]c4c3)c2C1 [Compound 228, 3-(4-chloro-2-fluorophenyl)-7-methyl-N-((2-oxo-2,3-dihydro-1H-benzo[d]imidazol-5-yl)methyl)-5,6,7,8-tetrahydroimidazo[1,5-a]pyrazine-1-carboxamide]	−	> 10000			
CNC(=O)[C@@H](NC(=O)c1nc(-c2ccccc2)n2c1CN(C)CC2)c1ccccc1 [Compound 207, (S)-7-methyl-N-(2-(methylamino)-2-oxo-1-phenylethyl)-3-phenyl-5,6,7,8-tetrahydroimidazo[1,5-a]pyrazine-1-carboxamide]	+			> 10000	
CNC(=O)[C@@H](NC(=O)c1nc(C(=O)c2ccccc2)n2c1CN(C)CC2)C(C)(C)C [Compound 289, (S)-3-benzoyl-N-(3,3-dimethyl-1-(methylamino)-1-oxobutan-2-yl)-7-methyl-5,6,7,8-tetrahydroimidazo[1,5-a]pyrazine-1-carboxamide]	−			> 10000	
CNC(=O)[C@@H](NC(=O)c1nc(CCCN2CCOCC2)n2c1CN(C)CC2)C(C)(C)C [Compound 309, (S)-N-(3,3-dimethyl-1-(methylamino)-1-oxobutan-2-yl)-7-methyl-3-(3-morpholinopropyl)-5,6,7,8-tetrahydroimidazo[1,5-a]pyrazine-1-carboxamide]				> 10000	> 10
COCCNC(=O)[C@@H](NC(=O)c1nc(-c2ccccc2)n2c1CN(C)CCC2)C(C)(C)C [Compound 475, (S)-N-(1-(2-methoxyethylamino)-3,3-dimethyl-1-oxobutan-2-yl)-8-methyl-3-phenyl-6,7,8,9-tetrahydro-5H-imidazo[1,5-a][1,4]diazepine-1-carboxamide]	+			> 10000	
CN1CCCn2c(-c3cc(Cl)c(F)cc3F)nc(C(=O)N[C@H](C(N)=O)C(C)(C)C)c2C1 [Compound 580, (S)-N-(1-amino-3,3-dimethyl-1-oxobutan-2-yl)-3-(5-chloro-2,4-difluorophenyl)-8-methyl-6,7,8,9-tetrahydro-5H-imidazo[1,5-a][1,4]diazepine-1-carboxamide]	+		+		
CN1CCn2c(-c3ccc(Cl)cc3F)nc(C(=O)N3CCC(C(N)=O)(N4CCOCC4)CC3)c2C1 [Compound 225]				> 10000	> 10
CNC(=O)[C@@H](NC(=O)c1nc(-c2ccccc2)n2c1CNCCC2)C(C)(C)O [Compound 606, (S)-N-(3-hydroxy-3-methyl-1-(methylamino)-1-oxobutan-2-yl)-3-phenyl-6,7,8,9-tetrahydro-5H-imidazo[1,5-a][1,4]diazepine-1-carboxamide]	+			> 10000	
CN1CCCn2c(-c3cc(F)ccc3F)nc(C(=O)N[C@@H](CC(C)(C)C)C(N)=O)c2C1 [Compound 583, (S)-N-(1-amino-4,4-dimethyl-1-oxopentan-2-yl)-3-(2,5-difluorophenyl)-8-methyl-6,7,8,9-tetrahydro-5H-imidazo[1,5-a][1,4]diazepine-1-carboxamide]	+		+		
CNC(=O)[C@@H](NC(=O)c1nc(C2CCNCC2)n2c1CN(C)CCC2)C(C)(C)C [Compound 503]	+		+		
CN1CCCn2c(-c3ccccc3)nc(C(=O)N[C@H](C(N)=O)C(C)(C)C)c2C1 [Compound 582]	+			> 10000	
Cc1noc([C@@H](NC(=O)c2nc(-c3ccccc3)n3c2CN(C(C)C)CC3)C(C)(C)C)n1 [Compound 89, (S)-N-(2,2-dimethyl-1-(3-methyl-1,2,4-oxadiazol-5-yl)propyl)-7-isopropyl-3-phenyl-5,6,7,8-tetrahydroimidazo[1,5-a]pyrazine-1-carboxamide]	−			> 10000	
